From patent publication US11814390B2, “Crystalline forms of 2-[3-[4-amino-3-(2-fluoro-4-phenoxy-phenyl)-1H-pyrazolo[3,4-D]pyrimidin-1-yl]piperidine-1-carbonyl]-4-methyl-4-[4-(oxetan-3-yl)piperazin-1-yl]pent-2-enenitrile” (Principia Biopharma Inc., priority 2020, dated 2023)
Entries after “also recorded” stand apart in the source; their conditions may differ.

Key:
[1] = Conversion between crystalline forms over time / relative thermodynamic stability at room temperature; type: physicochemical
Method: Several crystallization experiments were conducted in as part of a polymorph study for Compound (I). The experiments comprised different crystallization techniques such as suspension equilibration experiments, precipitations, cooling crystallizations, and vapor diffusion experiments.

[2] = Water content upon storage at high relative humidity (hygroscopicity); type: physicochemical; conditions: storage at 85% relative humidity (RH)

| water content upon storage [2] | SMILES | relative thermodynamic stability of crystalline form ([1]; at room temperature) | conversion of crystalline form over time ([1]; over time) |
| --- | --- | --- | --- |
| – | CC(C)(C=C(C#N)C(=O)N1CCC[C@@H](n2nc(-c3ccc(Oc4ccccc4)cc3F)c3c(N)ncnc32)C1)N1CCN(C2COC2)CC1 [Crystalline Form B, (R)-2-[3-[4-amino-3-(2-fluoro-4-phenoxy-phenyl)pyrazolo[3,4-d]pyrimidin-1-yl]piperidine-1-carbonyl]-4-methyl-4-[4-(oxetan-3-yl)piperazin-1-yl]pent-2-enenitrile] | may be thermodynamically more stable than crystalline Form A; also recorded: may be more thermodynamically more stable than crystalline Form C | – |
| less than 1% | CC(C)(C=C(C#N)C(=O)N1CCC[C@@H](n2nc(-c3ccc(Oc4ccccc4)cc3F)c3c(N)ncnc32)C1)N1CCN(C2COC2)CC1 [crystalline Form A, (R)-2-[3-[4-amino-3-(2-fluoro-4-phenoxy-phenyl)pyrazolo[3,4-d]pyrimidin-1-yl]piperidine-1-carbonyl]-4-methyl-4-[4-(oxetan-3-yl)piperazin-1-yl]pent-2-enenitrile] | – | may convert to crystalline Form B over time |
